What was measured:
[1] = tested on: OVA-induced allergic rhinitis; experiment: Rat allergic nasal inflammation (OVA-induced allergic rhinitis), intranasal administration; assay type: in vivo, SD rat; settings: all dose groups of the peptide; bilateral nasal cavities 50 μL/side, 4 weeks, continued OVA provocation
Method: SD rat modeling: two stages of intraperitoneal injection for sensitization and intranasal dripping for stimulation. Ovalbumin was injected intraperitoneally, and 1 mg ovalbumin (V-class Sigma, USA) was dissolved in 1 ml normal saline, and 30 mg of aluminum hydroxide was added as an immunologic adjuvant. Each rat was intraperitoneally injected 1 ml ovalbumin suspension prepared above with 1 ml/time every other day and for 7 times in total; and stimulated intranasally with ovalbumin on the 15th day; 20 mg ovalbumin (V-class Sigma, USA) were dissolved in 1 ml normal saline to be prepared into a 2% solution; and the 2% ovalbumin solution was used for stimulation by nasal dripping; and 50 ul nasal drips were administered in each of the nasal cavities of each rat for 7 consecutive days.
Blank control group: 30 mg of aluminum hydroxide+1 ml of normal saline were mixed evenly, and then injected intraperitoneally; and the method was the same as the above.
Normal saline was dripped into nasal cavities on the 15th day.
After the final nasal dripping was performed, each rat was observed and evaluated according to a scoring table: Sneezing, nose scratching, gasping and nasal secretions
1. Administration way: a drug was administered with a micro-sampling gun, bilateral nasal cavities of a rat were administered with 50 μL/side, after being administered for 20 min, a 2% ovalbumin solution was administered to bilateral nasal cavities of the rat; 50 μL/side nasal dripping was administered for provocation; the above treatment was performed for 4 consecutive weeks to observe the pharmacodynamic effect.
High-dose synthetic peptide brap: a synthetic peptide brap freeze-dried powder (5 mg/bottle) was taken, and 1.63 ml sterile saline solution was added for dissolving;
medium-dose synthetic peptide brap: a synthetic peptide brap freeze-dried powder (5 mg/bottle) was taken, and 4.89 ml sterile saline solution was added for dissolving;
low-dose synthetic peptide brap: a synthetic peptide brap freeze-dried powder (5 mg/bottle) was taken, and 14.67 ml sterile saline solution was added for dissolving;

[2] = tested on: LPS-induced acute lung injury; experiment: LPS-induced acute lung injury in mice, HE pathological examination of lung tissues; assay type: in vivo, Balb/C mice; settings: 16 mg/kgBW via tail vein once/day; LPS 5 mg/kgBW i.p.
Method: 1. Grade-SPF male Balb/C mice, body weight: 20±2 g, and n=48
3. Grouping and treatment: mice were randomly divided into 8 groups (A-H), 6 pcs./group;
3-1: 3 different treatments were given for 3 consecutive days respectively before modeling:
A. normal control group: normal saline was injected via the tail vein for once/day;
B. LPS model group: normal saline was injected via the tail vein for once/day;
C. model sp2 administration group: sp2 (16 mg/kgBW) was injected via the tail vein for once/day;
D. model high-dose brap administration group: brap (16 mg/kgBW) was injected via the tail vein for once/day;
E. model medium-dose brap administration group: brap (8 mg/kgBW) was injected via the tail vein for once/day;
F. model low-dose brap administration group: brap (4 mg/kgBW) was injected via the tail vein for once/day;
G. model brap intranasal administration group: brap (3 mM) was administered nasal administration on both sides, 15 μl/each side; once a day;
H. model dexamethasone administration group (a positive control group): dexamethasone, DEX, 5 mg/kg was injected intraperitoneally for once a day.
Animals from groups A-H were continuously administered the above treatments for 30 min respectively, then group A was intraperitoneally injected isopyknic normal saline, and other groups were intraperitoneally injected LPS 5 mg/kgBW.
1. Tissue section and extending
2. Tissues were dewaxed and hydrated.
3. Tissues were dyed with a hematoxylin stain for 5-20 min (adjusted according to different tissues and experimental requirements), and washed by tap water.
4. Then, tissues were differentiated by a differentiation solution for 30 s.
5. Tissues were soaked by tap water for 15 min or warm water (about 50° C.) for 5 min.
6. Tissues were put in an Eosin stain for 2 min (adjusted according to different tissues and experimental requirements), and washed by tap water.
7. Then, the tissues were soaked by tap water for 5 min.
8. Dehydration by gradient alcohol: Tissues were dehydrated by 95%, 100% I, and 100% II for 1 min each;
9. Transparency by xylene: tissues were subjected to xylene I and II for 10 min.
10. Neutral balsam mounting.
11. Then, it was put and dried in an oven at 60° C., and observed under microscope.

Q: How did the “Scoring change before and after treatment” value [1] turn out when “sp2: control synthetic peptide with an amino acid sequence as shown in SEQ ID No: 2 (RVLNGPEEEAAAPAE) [reference compound]” was run?
A: increases

Q: What about the “Lung tissue pathology (HE)” value [2] of the same substance?
A: inflammatory cell infiltration is obvious

— patent US11401303B2, “Synthetic peptide BRAP and application in preparation of anti-inflammatory drug for COVID-19 thereof” (TAIAN CITY QIHANG BIOTECHNOLOGY CO., priority 2020, dated 2022)
